Measured values reported in US20250154129A1, “CRYSTALLINE PHARMACEUTICALLY ACCEPTABLE SALT AND POLYMORPHIC FORM OF THE […] CYCLASE INHIBITOR VAROGLUTAMSTAT” (VIVORYON THERAPEUTICS N.V., priority 2023, published 2025).
Blank lines part the entries; values can stand above or below the molecule they belong to.

Experiments:
CCL2/CCR2 axis = conditions: three-week repeated administration, 30 and 100 mg/kg, twice daily; dose-dependent; cited from earlier work
[1] = Solubility in water of salt forms from 1 g scale salt screening in isopropanol; type: physicochemical; conditions: 20° C.
Excerpt: (§1) For such salts with a clear stoichiometry, their preparation was then repeated on 1 g scale (free base) in isopropanol with the acid slowly being added followed by seeding (seeds as obtained from the screening experiment). The solids were then further characterized with regard to: • Handling of crystals, • Crystal habit (microscopy, macroscopic): presence and shape of crystals, • Crystallinity (quality of crystals, XRPD), • Thermal analysis (DSC and TGA), • Hygroscopicity (DVS), and • Solubility in water.

[2] = Solubility screen of the hydrochloride salt in single solvents (HPLC of mother liquor); type: physicochemical; conditions: 20° C.
Protocol: As a first step, a solubility screen of the hydrochloride salt (obtained from the 1 g scale experiments in Example 3.2) was performed in single solvents as listed in Table 5. This was done in order to identify the most suitable solvents for the process development.
The resulting suspensions were equilibrated for at least 4 hours and the mother liquors sampled for solubility determination by HPLC (see “Description of analytical procedures used in the Examples of the invention” for method details).
• Column: ZORBAX BONUS RP 150 mm×4.6 mm; 3.5 um • Eluent A: 0.05% HCOOH in H2O • Eluent B: 0.05% HCOOH in ACN • Flow 1.00 ml/min • Gradient: 2 min 100% Eluent A, linear increase of Eluent B from 2 to 20 min from 0 to 100% • Detection: UV at 225 nm

[3] = pKa of Varoglutamstat (weak base); type: physicochemical
[4] = test system: mice doubly transgenic for human APP and human glutaminyl cyclase; conditions: chronic oral dosing; cited from earlier work
[5] = Solubility screening of the Varoglutamstat free base (HPLC of mother liquor); type: physicochemical
Protocol: 75 mg of solid were transferred into a glass vial, a magnetic stir bar and 1.5 ml of solvent were added. […] The vials were then cooled to 20° C. and stirred for another 30 min. When completely dissolved, additional solid material was added, and the vial equilibrated for at least 3 hours at 20° C.
The mother liquor was sampled and analyzed for content via HPLC versus an external standard solution (1-point calibration).
• Column: PHENOMENEX LUNA C18, 50×4.6 mm, 3 μm, • Mobile phase A: 0.05% TFA in water, • Mobile phase B: 0.05% TFA in acetonitrile. • Gradient: 10% to 90% B in 10 min, 2 min hold, re-equilibrate to initial gradient composition. • Flow: 1.0 mL/min. • Detection: UV at 225 nm.

[6] = Crystallinity by XRPD of salt forms from Example 3.2; type: physicochemical; conditions: 1 g scale, isopropanol
Excerpt: as §1
• Angle: 2θ=2° to 2θ=40° • Sampling width 0.02 • Measurement time: 75 minutes.
Solid was positioned on sample holder, prepared with grease and flattened with a disc of glass.

[7] = Hygroscopicity (DVS) of salt forms from Example 3.2; type: physicochemical; conditions: 1 g scale, isopropanol
Excerpt: as §1
VTI-SA by TA Instruments with Isotherm Software for data acquisition and handling, glass sample holder and de-ionised water for vapour production.

Aβ soluble protofibrils = conditions: adult patients with early Alzheimer disease; cited from earlier work
[8] = DMSO, solution obtained: solubility identical or higher than 50 mg/mL
[9] = MeOH, solution obtained: solubility identical or higher than 50 mg/mL
[10] = Water, solution obtained: solubility identical or higher than 50 mg/mL

Molecule: CCCOc1ccc(C2C(=O)NC(=O)N2c2ccc3[nH]cnc3c2)cc1 (stereo not drawn) [PQ529]
serum and urine CCL2 (CCL2/CCR2 axis): significantly reduced | urinary protein excretion (CCL2/CCR2 axis): significantly reduced

Molecule: Fumarate
crystallinity (by XRPD) [6]: mediocre | hygroscopicity [7]: high

Molecule: Oxalate
crystallinity (by XRPD) [6]: low | hygroscopicity [7]: high

B1: Leqembi: humanized IgG1 monoclonal antibody which binds to Aβ soluble protofibrils with high affinity (antibody, chains of the INN, looked up, V domains shown)
VH: EVQLVESGGGLVQPGGSLRLSCSASGFTFSSFGMHWVRQAPGKGLEWVAYISSGSSTIYYGDTVKGRFTISRDNAKNSLFLQMSSLRAEDTAVYYCAREGGYYYGRSYYTMDYWGQGTTVTVSS
VL: DVVMTQSPLSLPVTPGAPASISCRSSQSIVHSNGNTYLEWYLQKPGQSPKLLIYKVSNRFSGVPDRFSGSGSGTDFTLRISRVEAEDVGIYYCFQGSHVPPTFGPGTKLEIK
brain amyloid (Aβ soluble protofibrils): reduce | cognitive decline (Aβ soluble protofibrils): modestly slow

Now from value to molecule, other results behind:

Solubility in water ([1]; procedure of Example 4.1): 3600 µM
Molecule: CCCOc1ccc([C@H]2CNC(=O)N2c2ccc3[nH]cnc3c2)cc1 [TosOH]

ML free base ([2]; ACN): 0.1 mg/mL | calculated HCl ([2]; ACN): 0.1 mg/mL | ML free base ([2]; Acetone): 0.1 mg/mL | calculated HCl ([2]; Acetone): 0.1 mg/mL | ML free base [2, 8]: 51.7 mg/mL | calculated HCl [2, 8]: 57.3 mg/mL | ML free base ([2]; EtOAc): 0.0 mg/mL | calculated HCl ([2]; EtOAc): 0.0 mg/mL | ML free base ([2]; EtOH): 41.3 mg/mL | calculated HCl ([2]; EtOH): 45.8 mg/mL | ML free base ([2]; Heptane): 0.0 mg/mL | calculated HCl ([2]; Heptane): 0.0 mg/mL | ML free base ([2]; IPA): 3.6 mg/mL | calculated HCl ([2]; IPA): 4.0 mg/mL | ML free base ([2]; IPrOAc): 0.0 mg/mL | calculated HCl ([2]; IPrOAc): 0.0 mg/mL | ML free base ([2]; MEK): 0.0 mg/mL | calculated HCl ([2]; MEK): 0.0 mg/mL | ML free base ([2]; MIBK): 0.1 mg/mL | calculated HCl ([2]; MIBK): 0.1 mg/mL | ML free base ([2]; Me-THF): 0.0 mg/mL | calculated HCl ([2]; Me-THF): 0.0 mg/mL | ML free base [2, 9]: 47.5 mg/mL | calculated HCl [2, 9]: 52.6 mg/mL | ML free base ([2]; TBME): 0.0 mg/mL | calculated HCl ([2]; TBME): 0.0 mg/mL | ML free base ([2]; THF): 0.0 mg/mL | calculated HCl ([2]; THF): 0.0 mg/mL | ML free base ([2]; Toluene): 0.1 mg/mL | calculated HCl ([2]; Toluene): 0.1 mg/mL | ML free base [2, 10]: 52.0 mg/mL | calculated HCl [2, 10]: 57.6 mg/mL | ML free base ([2]; nBuOH): 3.9 mg/mL | calculated HCl ([2]; nBuOH): 4.4 mg/mL | ML free base ([2]; nPrOH): 10.4 mg/mL | calculated HCl ([2]; nPrOH): 11.5 mg/mL
Molecule: CCCOc1ccc([C@H]2CNC(=O)N2c2ccc3[nH]cnc3c2)cc1.Cl [Varoglutamstat Hydrochloride, (S)-1-(1H-benzo[d]imidazol-5-yl)-5-(4-propoxyphenyl) imidazolidin-2-one hydrochloride]

pKa [3]: 4.55 | solubility in organic solvents ([5]; methyl-isobutyl-ketone, dichloro-methane, 20° C.): good | solubility ([5]; organic solvent or mixture, thermodynamic from solid, acetone, tetrahydrofuran, methyl-tetrahydrofuran, methyl-ethylketone, 2-pentanone, acetonitrile, dimethylsulfoxide, methanol, ethanol, isopropanol, n-propanol, n-butanol, 20° C., read-out: excellent solubility in organic solvents): ≥ 30 mg/mL | solubility in organic solvents ([5]; tert-butyl-methyl-ketone, ethyl-acetate, isopropyl-acetate, heptane, toluene, 20° C.): poorly soluble or insoluble | solubility at 30 min ([5]; thermodynamic from solid, water, equilibrated at 20° C.): < 1 mg/mL | Solubility in water ([5]; water, forms a sticky/oily suspension): almost insoluble | Solubility in water ([1]; procedure of Example 4.1, listed as free base): 890 µM
Molecule: CCCOc1ccc([C@H]2CNC(=O)N2c2ccc3[nH]cnc3c2)cc1 [Varoglutamstat free base, (S)-1-(1H-benzo[d]imidazol-5-yl)-5-(4-propoxyphenyl)imidazolidin-2-one]
brain pyroglutamate Aβ [4]: reduce | recall in the Morris water maze test of spatial memory [4]: improve
